Assay results published in patent publication US4849410A, “Pseudopterosin and synthetic derivatives thereof” (The Regents of the University of California, priority 1987, dated 1989).

Assays:
[1] = system: M5076 reticulum cell sarcoma; assay: Activity in mice bearing ip M5076 reticulum cell sarcoma; assay type: in vivo, female B6D2F1 mice
Method: (§1) Compound I was also evaluated for activity against solid tumors as follows:
(§2) One-half ml of a 10 percent (v:v) brei of tumor cells prepared from solid B16 melanoma or M5076 reticulum cell sarcoma was implanted ip in female B6D2F1 mice which were randomized to treatment groups of 8 animals each. Treatment was initiated 24 hours after tumer inoculation and was continued daily for 10 days (cisplatin was administered q4Dx4 on Days 1, 5, 9 and 13). Mice were monitored daily for 60 days, and the median day of death was determined compared to three groups of untreated controls to provide percent increase in lifespan (ILS). ILS values of greater than or equal to 50 percent represent biologically significant antitumor effects. Cisplatin was curative in M5076 with 6/8 tumor-free survivors on Day 60 at the top dose level.

P388 leukemia = assay: Evaluation in mice bearing ip P388 leukemia; assay type: in vivo, female B6D2F1 mice
Method: Compound I was also evaluated in mice bearing P388 Leukemia as follows:
Compound I was administered to the mice as a solution by first dissolving it in N,N-dimethylacetamide, adding an equal volume of Cremophor EL and then 8 volumes of water. The drug concentration was such that the desired dose was delivered in a volume of 0.5 ml per mouse. Dilutions from the highest dose in a dose-response study were made by the addition of water so that organic component of the formulation decreased with dose reduction; the drug remained in solution.
10^6 P388 leukemia cells were implanted intraperitoneal in female B6D2F1 mice which were randomized to treatment groups of six animals each. Treatment was initiated 24 hours after tumor implantation and was continued daily for five days (Cisplatin was administered on Days 1 and 5 for the Group 1 mice). Mice were weighted as groups on Days 1, 5 and 9 to provide an indication of drug toxicity. Mice were monitored for survival daily for 45 days, and the median day of death was determined compared to three groups of untreated controls to provide percent increase in lifespan (ILS). ILS values of greater than or equal to 40 percent represent actual reduction in tumor cell burden during the course of treatment and are taken as indications of biologically significant antitumor effect.

B16 melanoma = assay: Activity in mice bearing ip B16 melanoma; assay type: in vivo, female B6D2F1 mice
Method: as §1, §2

[2] = system: Phorbol Myristate Acetate (PMA) Induced Topical Inflammation of the Mouse Ear; assay: Mouse Ear Anti-Inflammatory Assay (PMA, topical); assay type: in vivo; conditions: for Mean Ear Weight ± S.E.: Table IV, in mg; for Anti-inflammatory Activity: summary
Method: a. Mouse Ear Anti-Inflammatory Assay
Test compound and phorbol myristate acetate (PMA) are topically applied simultaneously to the pinnae of the ears of mice. Three hours twenty minutes after application, mice are sacrificed, ears removed and standard sized bores taken. Edema (inflammation) is measured as the difference in weight between control and treated ears.
The vheicle or carrier for the compounds used in the inflammatory and analgesic assays was as follows; For the mouse ear inflammatory assay, the vehicle was acetone. Controls received 25 microliters of acetone. Test compounds were applied to the experimental animals in 25 microliter volumes. For the sperm motility and fertilized sea urchin egg assays, the compounds were dissolved in 10 microliters undenatured ethanol.

[3] = system: Intraperitoneally Administered Phenylquinone; assay: Phenylquinone Assay for Analgesia (writhing); assay type: in vivo, mice; conditions: for Mean Writhes per Animal / No. Writhes / % Change Relative to Control: 25 mg/kg; for No. Writhes: total of group; for % Change Relative to Control: writhes per animal; for Analgesic Activity: summary
Method: d. Phenylquinone Assay for Analgesia
Test compound is injected subcutaneously into mice. After 30 minutes, phenylquinone is injected intraperitoneally to cause pain as indicated by writhing.
Test compound was administered subcutaneously in sesame oil at concentrations up to 5 mg per ml depending on the test compound dosage protocol. The highest dose was 50 mg per Kg. Control groups received sesame oil subcutaneously.

[4] = Group 2, cisplatin 1 mg/kg ip, Days 1-5
[5] = Group 2, cisplatin 2 mg/kg ip, Days 1-5
[6] = Group I, cisplatin 3 mg/kg ip, Days 1 and 5
[7] = Group I, cisplatin 6 mg/kg ip, Days 1 and 5

N.N.[Cl][Pt][Cl] [Cisplatin, reference compound]
Increase to Lifespan ([1]; cisplatin 3 mg/kg ip): 121% | Median Survival Time ([1]; cisplatin 3 mg/kg ip): 46.5 days | Weight Change on Day 9 ([1]; cisplatin 3 mg/kg ip): +0.1 gm | Increase to Lifespan ([1]; cisplatin 5 mg/kg ip): > 200% | Median Survival Time ([1]; cisplatin 5 mg/kg ip): > 60 days | Weight Change on Day 9 ([1]; cisplatin 5 mg/kg ip): -1.6 gm | tumor-free survivors on Day 60 ([1]; top dose level of cisplatin): 6/8 | Increase to Lifespan (P388 leukemia; [4]): 75% | Median Survival Time (P388 leukemia; [4]): 17.5 days | Weight Change Day 5 (P388 leukemia; [4]): -0.2 gm | Weight Change Day 9 (P388 leukemia; [4]): +0.1 gm | Increase to Lifespan (P388 leukemia; [5]): 200% | Median Survival Time (P388 leukemia; [5]): 30 days | Weight Change Day 5 (P388 leukemia; [5]): -2.5 gm | Weight Change Day 9 (P388 leukemia; [5]): -0.9 gm | Increase to Lifespan (P388 leukemia; [6]): 127% | Median Survival Time (P388 leukemia; [6]): 25 days | Weight Change Day 5 (P388 leukemia; [6]): +0.3 gm | Weight Change Day 9 (P388 leukemia; [6]): +1.1 gm | Increase to Lifespan (P388 leukemia; [7]): 177% | Median Survival Time (P388 leukemia; [7]): 30.5 days | Weight Change Day 5 (P388 leukemia; [7]): -1.2 gm | Weight Change Day 9 (P388 leukemia; [7]): -1.1 gm | Increase to Lifespan (B16 melanoma; cisplatin 3 mg/kg ip): 36% | Median Survival Time (B16 melanoma; cisplatin 3 mg/kg ip): 30 days | Weight Change on Day 9 (B16 melanoma; cisplatin 3 mg/kg ip): +1.6 gm | Increase to Lifespan (B16 melanoma; cisplatin 6 mg/kg ip): 77% | Median Survival Time (B16 melanoma; cisplatin 6 mg/kg ip): 39 days | Weight Change on Day 9 (B16 melanoma; cisplatin 6 mg/kg ip): +0.5 gm

CC(C)=CCCC(C)C1CCC(C)c2c1cc(C)c(O)c2OC1OCC(O)C(O)C1O (stereo not shown) [Compound IX]
Mean Ear Weight ± S.E. ([2]; 25.0 ug/ear): 15.85 ± 2.51 | Mean Ear Weight ± S.E. ([2]; 50.0 ug/ear): 14.04 ± 2.38 | Anti-inflammatory Activity [2]: Active | Mean Writhes per Animal [3]: 6.8 | No. Writhes [3]: 68 | % Change Relative to Control [3]: -26% | Analgesic Activity [3]: Active

CC(=O)OC1COC(Oc2c(O)c(C)cc3c2C(C)CCC3C(C)CCC=C(C)C)C(O)C1O (stereo not shown) [Compound VIII]
Mean Ear Weight ± S.E. ([2]; 25.0 ug/ear): 13.93 ± 2.59 | Mean Ear Weight ± S.E. ([2]; 50.0 ug/ear): 12.07 ± 1.69 | Anti-inflammatory Activity [2]: Active | Analgesic Activity [3]: Active

COc1c(C)c2c3c(c1O)C(C)CCC3C(C)CC2C=C(C)C (stereo not shown) [Compound XII]
Mean Writhes per Animal [3]: 12.5 | No. Writhes [3]: 25 | % Change Relative to Control [3]: +6%

CC(=O)OC1=C(C)C2(O)C3=C(C1=O)C(C)CCC3C(C)CC2C=C(C)C (stereo not shown) [Compound XI]
Mean Writhes per Animal [3]: 12.3 | No. Writhes [3]: 37 | % Change Relative to Control [3]: +4%

CC(=O)OC1C(O)COC(Oc2c(O)c(C)cc3c2C(C)CCC3C(C)CCC=C(C)C)C1O (stereo not shown) [Compound X]
Mean Ear Weight ± S.E. ([2]; 50.0 ug/ear): 10.64 ± 1.93 | Anti-inflammatory Activity [2]: Active

COc1ccc2c(c1)c(CC(=O)O)c(C)n2C(=O)c1ccc(Cl)cc1 [indomethacin, reference compound]
decrease in edema ([2]; 50 microgram): 50%
